Data on six compounds can be found in patent publication US8216550B2, “Luciferins” (University of Massachusetts, priority 2007, dated 2012).

The first assay has as its system Firefly luciferase. Kind of assay: Luciferase assay: emission spectrum of purified luciferase with luciferin substrates. Particulars: substrate of purified firefly luciferase, pH 7.8, Spex Fluoromax-3.
Regarding `O=C(O)[C@H]1CSC(c2nc3ccc(O)cc3s2)=N1` [D-luciferin, reference compound], the maximal emission came out at 555 nm.
As for amino-luciferin [reference compound], the maximal emission stood at 593 nm.
In the case of `CCCCNc1ccc2nc(C3=N[C@@H](C(=O)O)CS3)sc2c1` [n-butylamino, D-2-(6′-butylamino-2′-benzothiazolyl)-Δ^2-thiazoline-4-carboxylic acid], the maximal emission came to 607 nm.
In the case of `CN(C)c1ccc2nc(C3=N[C@@H](C(=O)O)CS3)sc2c1` [dimethylamino-luciferin (1a), D-2-(6′-dimethylamino-2′-benzothiazolyl)-Δ^2-thiazoline-4-carboxylic acid], the maximal emission came out at 624 nm.
In turn, `CC(C)Nc1ccc2nc(C3=N[C@@H](C(=O)O)CS3)sc2c1` [isopropylamino, D-2-(6′-isopropylamino-2′-benzothiazolyl)-Δ^2-thiazoline-4-carboxylic acid] registered a maximal emission of 607 nm.
The same measure, in the same setting: as for `CCNc1ccc2nc(C3=N[C@@H](C(=O)O)CS3)sc2c1` [ethylamino, D-2-(6′-ethylamino-2′-benzothiazolyl)-Δ^2-thiazoline-4-carboxylic acid], the figure is 607 nm.

For a further assay, the system named is Firefly luciferase.
Assay: not given
The note with it: amino-luciferin as substrate, literature value; cited from earlier work.
As to amino-luciferin [reference compound], the “maximal emission reported by White et al., JACS (1966) 88: 2015” value is given as 605 nm.
